Data taken from ChEMBL document CHEMBL5390302, “Novel PARP7 Inhibitors for Treating Cancer” (ACS Med Chem Lett, 2023).

What follows are compounds tested against T1, Protein mono-ADP-ribosyltransferase TIPARP (Homo sapiens, UniProt Q7Z3E1) (assay: Displacement of biotinylated RBN011147 probe from PARP7 (unknown origin) preincubated for 1 hr followed by incubation with probe for 1.5 hrs by MSD electrochemiluminescent assay).
T1 sequence (Q7Z3E1 whole entry): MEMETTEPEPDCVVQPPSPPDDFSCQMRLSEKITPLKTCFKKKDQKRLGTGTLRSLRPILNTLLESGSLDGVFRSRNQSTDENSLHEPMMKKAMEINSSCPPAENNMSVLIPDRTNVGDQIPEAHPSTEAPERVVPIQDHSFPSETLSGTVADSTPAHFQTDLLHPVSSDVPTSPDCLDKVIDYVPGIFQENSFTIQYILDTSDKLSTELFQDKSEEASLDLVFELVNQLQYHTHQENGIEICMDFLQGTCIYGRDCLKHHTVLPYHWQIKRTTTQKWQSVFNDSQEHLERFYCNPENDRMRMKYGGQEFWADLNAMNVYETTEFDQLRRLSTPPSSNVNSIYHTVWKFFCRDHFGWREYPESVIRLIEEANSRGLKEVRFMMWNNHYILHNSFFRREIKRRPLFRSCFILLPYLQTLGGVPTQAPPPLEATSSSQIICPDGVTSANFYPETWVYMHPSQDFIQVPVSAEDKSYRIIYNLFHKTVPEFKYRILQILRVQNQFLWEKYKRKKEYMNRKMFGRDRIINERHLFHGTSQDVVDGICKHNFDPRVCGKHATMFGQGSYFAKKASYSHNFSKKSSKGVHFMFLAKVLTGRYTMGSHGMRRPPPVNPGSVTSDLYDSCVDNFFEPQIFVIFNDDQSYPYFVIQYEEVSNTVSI

Row | Structure (SMILES) | IC50
1 | C[C@@H](CCCn1ccc2cc(-c3ncc(C(F)(F)F)c(N4C[C@@H](O)[C@@H]4C)n3)c(F)cc2c1=O)Nc1cn[nH]c(=O)c1C(F)(F)F | 0.185 nM
2 | C[C@@H](CCCn1ccc2cc(-c3ncc(Cl)c(N)n3)c(F)cc2c1=O)Nc1cn[nH]c(=O)c1C(F)(F)F | 0.188 nM
3 | C[C@@H](CCCn1ccc2cc(-c3ncc(C(F)(F)F)c(N4CC(C#N)C4)n3)c(F)cc2c1=O)Nc1cn[nH]c(=O)c1C(F)(F)F | 0.188 nM
